# Laboratory results as given in patent publication US20090258030A1, “Materials and Methods for Improving Livestock Productivity” (priority 2006, published 2009).
# Structures can show the parent of a compound that is named as a salt. Marks after values point to notes of the source that are not given here.
# Columns and labels:
# [1] = Effect of cysteamine hydrochloride on weaning piglets: growth, FCR, diarrhea (Example 2); assay type: in vivo, swine (D×L×M weanling piglets)
# Excerpt: Total of 100 heads of unhealthy D×L×M weanling piglets (approx. 6.78 kg) were divided into 2 groups—Control group (50 heads) & Cysteamine group (50 heads). The Control group was fed with basal diet. […]
# [2] = Carcass composition/appearance of fattening pigs (Example 3); assay type: in vivo, swine; conditions: 150 g cysteamine hydrochloride per ton of feed
# Method: 72 piglets were divided evenly into control group and Cysteamine group. The control group was treated with basal diet while the Cysteamine group was treated with basal diet added with 150 g cysteamine hydrochloride per ton of feed. Upon reaching the market weight of 85-90 kg, five animals from each treatment were slaughtered after fasting for one day. During slaughter, the animals were stunned with a stunning gun, bled, dehaired and eviscerated. The carcass was split […] and then chilled for 24 hours prior to fabrication. The slaughter and the chilled carcass weights were recorded. The chilled carcass weight expressed as percentage of the slaughter weight represents the dressed yield. The wholesale and retail cuts of each animals were weighed and recorded. The values were expressed as the percentage of the live weight and of the chilled carcass weight.
# The area of the longissimus dorsi (LD) muscle was measured on the 12th rib of the right part of the carcasses. This was done by tracing the outline of the whole LD muscle on acetate paper and the area was measured with the use of a grading method.
# There were no significant interaction effects.
# [3] = Daily weight gain and feed conversion rate of beef cattle (Example 5); assay type: in vivo, beef cattle (Ximenta'er hybridizing beef cattle)
# Method: In the following example, the test animals were beef cattle (Ximenta'er hybridizing beef cattle). The experiment was performed at the Hebei Hengshui Geling Beef Cattle Raising Farm dur the period from Oct. 10 to Dec. 21, 2002. In total, 64 heads of around 350 kg Ximenta'er hybridizing beef cattle were selected and separated into 4 groups randomly according to the principle of equalizing age, weight, grace, fur/hair condition, etc. Each group had 16 heads of beef cattle. The Control Group, Test Group I, II & III were fed a composition comprising 0, 1.5, 3, 6 g/head/day of cysteamine HCl, respectively. As noted in Tables 8, 9, and 10 below, adding a cysteamine compound to the basal diet of beef cattle can increase daily weight gain.
# [4] = Efficacy of cysteamine hydrochloride on sow and their weaning piglets performance (Example 9); assay type: in vivo, swine (crossbred Yolkshire and Lanrace sows); conditions: for Total of pigs born: 10 sows from 84 days gestation; for Av. of milk yield, L/d: calculated from average daily gain of piglets × 4 × no of piglets in each litter; for Total number of piglets at weaning: weaned at 21 days
# Excerpt: All sows used in the experiment were crossbred (Yolkshire and Lanrace) selected from the 3rd and the 4^Th (ratio 4:6) pregnancy. Thirty sows (84 days gestation) were equally allocated into three treatments and each treatment of sows were divided into 10 replications with each sow per replication.
# Cysteamine Hydrochloride was included to sow feeds at 135 ppm or 190 ppm. The diets were fed in mash form, water was allowed ad libitum. Litter size, litter weights, number of piglets born alive and weaned were recorded. Morbidity, incidence of diarrhea and mortality rates were recorded. Piglet's uniformity was accounted as percentage units that fell into two times of standard deviation based on average weaning live weight. The piglets from each sow were weaned at 21 days of age. On day 109 of gestation, sows were moved to farrowing units and were weight after farrowing and also weighed again after lactation. Back fat losses were measured every weeks during lactation period by using Renco Lean-Meter (Ultrasound for Ultra-profits, Renco Corporation, Minnesota, 55401, USA). Sows were fed about 2 kg/day during 16-84 days, 3 kg/day until farrowing and fed ad libitum during lactation period.
# All sows were housed in cages adjacent to the boar's area and serviced by artificial insemination twice at 18 hours interval with the checked quality semen of the same boar. After 1 week service, they were weighed and moved to individual gestation cages. Five days prior to the date of parturition, they were moved to the farrowing units for setting in and staying till piglets weaning. After piglets weaning each sow was moved again to the service area.
# All sows and piglets were subject to the usual vaccination program, antiparasitic treatment, iron injection and tail docking for piglets. An individual treatment was done if a disease or injury was developed during the trial, under the authority of the veterinary in charge of the farm animal health.
# [5] = 90 g of cysteamine hydrochloride per ton of feed, after 30 days, vs control
# [6] = D × L × M weanling piglets, 300 ppm, 30 days
# [7] = D × L × M weanling piglets, 300 ppm, 30 days, 50 head
# [8] = slaughter at market weight 85-90 kg
# [9] = T2: 0.0135 (135 ppm in sow feed)
# [10] = T3: 0.019 (190 ppm in sow feed)
compound,measurement,setting,value
"NCCS [Cysteamine Hydrochloride, cysteamine hydrochloride]",decrease in feed conversion rate (FCR),[1]; [5],5.56%
same,improvement in diarrhea condition,[1]; [5],43.24%
same,increase in average daily weight gain (ADG),[1]; [5],12.83%
same,ADG: Improvement,"[1]; 300 ppm, 30 days, vs control",+48 g/head
same,ADG: Improvement (%),"[1]; 300 ppm, 30 days, vs control",12.83%
same,Daily feed consumption: Improvement,"[1]; 300 ppm, 30 days, vs control",+44.2 g/head
same,Diarrhea: Improvement (%),"[1]; 300 ppm, 30 days, vs control",−43.24%
same,FCR: Improvement,"[1]; 300 ppm, 30 days, vs control",−0.1
same,FCR: Improvement (%),"[1]; 300 ppm, 30 days, vs control",−5.56%
same,Final Wt.: Improvement,"[1]; 300 ppm, 30 days, vs control",+1.5 kg/head
same,Total feed consumption: Improvement,"[1]; 300 ppm, 30 days, vs control",+66.3 kg
same,Total final weight: Improvement,"[1]; 300 ppm, 30 days, vs control",+75 kg
same,Total weight gain: Improvement,"[1]; 300 ppm, 30 days, vs control",+72.5 kg
same,Weight gain: Improvement,"[1]; 300 ppm, 30 days, vs control",+1.45 kg/head
same,ADG (g/head),[1]; [6],422 g/head
same,Daily feed consumption (g/head),[1]; [6],717.4 g/head
same,FCR,[1]; [6],1.70
same,Final Wt. (kg/head),[1]; [6],19.46 kg/head
same,Weight gain (kg/head),[1]; [6],12.66 kg/head
same,Total feed consumption,[1]; [7],1076.1 kg
same,Total final weight,[1]; [7],973 kg
same,Total weight gain,[1]; [7],633 kg
same,Diarrhea (head),"[1]; D × L × M weanling piglets, 300 ppm, 30 days, of 50 head",21 head
same,backfat vs pigs fed diet without cysteamine hydrochloride,[2],significantly thinner
same,"dressing percentage, loin eye area, and lean:fat ratio vs pigs fed without cysteamine hydrochloride",[2],no significant differences
same,loin cut and lean trimmings as a percent of the live-weight vs pigs fed without cysteamine hydrochloride,[2],significantly higher
same,Dressing %,[2]; [8],69.012%
same,Lean:Fat Ratio,[2]; [8],0.105
same,Loin Eye Area (sq.cm),[2]; [8],4.850 sq.cm
same,Backfat Thickness (cm),"[2]; slaughter at market weight 85-90 kg, P < 0.05 vs non-cysteamine HCl",1.91^a cm
same,daily weight gain,"[3]; Test Group III: 6 g/head/day, p<0.05 vs Control, Test Group I & II",1.217 kg
same,Feed Conversion Rate (FCR): Concentrated feed,[3]; Test I: 1.5 g/head/day,3.54
same,Feed Conversion Rate (FCR): Corn Silage,[3]; Test I: 1.5 g/head/day,14.14
same,Feed Conversion Rate (FCR): Raw Grass,[3]; Test I: 1.5 g/head/day,1.21
same,Final Wt.,[3]; Test I: 1.5 g/head/day,423.8 kg
same,Feed Conversion Rate (FCR): Concentrated feed,[3]; Test II: 3 g/head/day,3.70^a
same,Feed Conversion Rate (FCR): Corn Silage,[3]; Test II: 3 g/head/day,14.42^a
same,Feed Conversion Rate (FCR): Raw Grass,[3]; Test II: 3 g/head/day,1.27^a
same,Final Wt.,[3]; Test II: 3 g/head/day,420.5 kg
same,Feed Conversion Rate (FCR): Concentrated feed,[3]; Test III: 6 g/head/day,3.09^b
same,Feed Conversion Rate (FCR): Corn Silage,[3]; Test III: 6 g/head/day,12.87^b
same,Feed Conversion Rate (FCR): Raw Grass,[3]; Test III: 6 g/head/day,1.06^a
same,Final Wt.,[3]; Test III: 6 g/head/day,432.7 kg
same,"Av. birth weight of piglets, kg",[4]; [9],1.737^a kg
same,"Av. daily feed intake of sow during lactation, kg",[4]; [9],5.88^a kg
same,Av. daily gain of piglets,[4]; [9],355 g
same,Av. feed intake per piglets,[4]; [9],179 g
same,Av. live weight of piglets at weaning,[4]; [9],7.45 kg
same,Av. number of piglets born alive per litter,[4]; [9],11.10
same,Av. of piglet born per litter,[4]; [9],11.60
same,"Av. overall weight loss of sow during lactation, kg",[4]; [9],14.25^b kg
same,"Av. total birth weight of piglet per litter, kg",[4]; [9],19.10^a kg
same,"Back fat loss of sow during lactation, mm: Overall",[4]; [9],0.867^b mm
same,"Back fat loss of sow during lactation, mm: Week 1",[4]; [9],0.165^b mm
same,"Back fat loss of sow during lactation, mm: Week 2",[4]; [9],0.588^b mm
same,"Back fat loss of sow during lactation, mm: Week 3",[4]; [9],0.114^b mm
same,Number of piglet weaning per litter,[4]; [9],10.20
same,"Survival rate of piglets at weaning, %",[4]; [9],91.90%
same,Total number of piglet born alive per litter,[4]; [9],111
same,"Total weight of piglets at weaning per litter, kg",[4]; [9],76.02^ab kg
same,"Uniformity of live weight at weaning, %",[4]; [9],86.68^a %
same,Total of pigs born,[4]; [9],116
same,"Av. of milk yield, L/d",[4]; [9],14.48^ab L/d
same,Total number of piglets at weaning,[4]; [9],102
same,"Av. birth weight of piglets, kg",[4]; [10],1.782^a kg
same,"Av. daily feed intake of sow during lactation, kg",[4]; [10],6.07^a kg
same,Av. daily gain of piglets,[4]; [10],366 g
same,Av. feed intake per piglets,[4]; [10],183 g
same,Av. live weight of piglets at weaning,[4]; [10],7.68 kg
same,Av. number of piglets born alive per litter,[4]; [10],10.70
same,Av. of piglet born per litter,[4]; [10],11.50
same,"Av. overall weight loss of sow during lactation, kg",[4]; [10],13.58^b kg
same,"Av. total birth weight of piglet per litter, kg",[4]; [10],18.88^a kg
same,"Back fat loss of sow during lactation, mm: Overall",[4]; [10],0.829^b mm
same,"Back fat loss of sow during lactation, mm: Week 1",[4]; [10],0.171^b mm
same,"Back fat loss of sow during lactation, mm: Week 2",[4]; [10],0.548^b mm
same,"Back fat loss of sow during lactation, mm: Week 3",[4]; [10],0.110^b mm
same,Number of piglet weaning per litter,[4]; [10],10.40
same,"Survival rate of piglets at weaning, %",[4]; [10],97.20%
same,Total number of piglet born alive per litter,[4]; [10],107
same,"Total weight of piglets at weaning per litter, kg",[4]; [10],79.42^a kg
same,"Uniformity of live weight at weaning, %",[4]; [10],86.95^a %
same,Total of pigs born,[4]; [10],115
same,"Av. of milk yield, L/d",[4]; [10],15.13^a L/d
same,Total number of piglets at weaning,[4]; [10],104
